Laboratory results taken from ChEMBL document CHEMBL1201862, “PubChem BioAssay data set” (2004).
The source made the active and inactive calls.

How the values were obtained:
[1] = target: T1, Heat shock factor protein 1 (Mus musculus, UniProt P38532); assay: HSF1 potentiators in luciferase reporter cells, confirmation, cell-based, NIH3T3, luminescence, dose retest (AID 435004); assay type: functional;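 note: stress induced by proteasome inhibitor MG132 added 30 min after compound; luciferase reporter driven by HSF1 response element in NIH3T3 cells; actives raise luminescence as potentiators of the MG132 stress response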
T1 sequence (P38532 whole entry): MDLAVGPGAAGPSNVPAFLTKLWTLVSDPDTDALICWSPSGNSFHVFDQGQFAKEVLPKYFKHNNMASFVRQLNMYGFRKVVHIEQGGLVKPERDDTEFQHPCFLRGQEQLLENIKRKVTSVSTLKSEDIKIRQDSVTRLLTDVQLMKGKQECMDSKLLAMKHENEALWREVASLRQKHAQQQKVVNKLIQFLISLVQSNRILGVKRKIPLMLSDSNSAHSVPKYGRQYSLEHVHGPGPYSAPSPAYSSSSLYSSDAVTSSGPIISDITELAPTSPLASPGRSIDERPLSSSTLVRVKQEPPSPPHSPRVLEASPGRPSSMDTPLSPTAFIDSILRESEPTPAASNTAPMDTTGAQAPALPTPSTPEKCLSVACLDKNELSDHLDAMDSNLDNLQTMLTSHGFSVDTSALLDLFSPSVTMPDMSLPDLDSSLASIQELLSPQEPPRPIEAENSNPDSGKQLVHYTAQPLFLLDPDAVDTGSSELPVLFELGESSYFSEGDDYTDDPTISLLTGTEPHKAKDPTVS

[2] = target: T2, Leucine aminopeptidase (Plasmodium falciparum 3D7, UniProt Q8IL11); assay: P. falciparum M17LAP inhibitors, primary screen, biochemical, fluorogenic H-Leu-NHMec substrate, 1536-well (AID 1619); assay type: functional
T2 sequence (Q8IL11 whole entry): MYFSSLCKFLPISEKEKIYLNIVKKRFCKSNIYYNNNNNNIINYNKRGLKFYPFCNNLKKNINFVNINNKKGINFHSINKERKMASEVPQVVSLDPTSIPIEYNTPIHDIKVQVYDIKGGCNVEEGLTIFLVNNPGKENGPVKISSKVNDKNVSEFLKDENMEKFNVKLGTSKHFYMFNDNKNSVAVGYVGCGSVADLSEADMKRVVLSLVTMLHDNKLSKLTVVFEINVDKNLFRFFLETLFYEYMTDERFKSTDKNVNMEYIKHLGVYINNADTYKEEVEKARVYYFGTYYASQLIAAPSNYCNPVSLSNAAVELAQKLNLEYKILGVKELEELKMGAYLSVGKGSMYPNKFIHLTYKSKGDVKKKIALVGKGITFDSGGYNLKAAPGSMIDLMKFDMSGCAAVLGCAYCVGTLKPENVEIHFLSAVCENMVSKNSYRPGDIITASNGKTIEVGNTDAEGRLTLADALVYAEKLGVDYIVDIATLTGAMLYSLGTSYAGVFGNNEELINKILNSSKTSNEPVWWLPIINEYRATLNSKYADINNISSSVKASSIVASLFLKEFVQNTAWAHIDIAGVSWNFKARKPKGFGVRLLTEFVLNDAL

[3] = target: T3, Aspartyl aminopeptidase (Plasmodium falciparum 3D7, UniProt Q8I2J3); assay: Counterscreen for inhibitors of M1 and M17 aminopeptidases: QFRET-based biochemical high throughput dose response assay for inhibitors of the Plasmodium falciparum M18 Aspartyl Aminopeptidase (PFM18AAP). [Related PubChem assays: 1619 (Screening assay (M17LAP inhibitors).), 1445 (Screening assay (M1AAP inhibitors).)]
T3 sequence (Q8I2J3 whole entry): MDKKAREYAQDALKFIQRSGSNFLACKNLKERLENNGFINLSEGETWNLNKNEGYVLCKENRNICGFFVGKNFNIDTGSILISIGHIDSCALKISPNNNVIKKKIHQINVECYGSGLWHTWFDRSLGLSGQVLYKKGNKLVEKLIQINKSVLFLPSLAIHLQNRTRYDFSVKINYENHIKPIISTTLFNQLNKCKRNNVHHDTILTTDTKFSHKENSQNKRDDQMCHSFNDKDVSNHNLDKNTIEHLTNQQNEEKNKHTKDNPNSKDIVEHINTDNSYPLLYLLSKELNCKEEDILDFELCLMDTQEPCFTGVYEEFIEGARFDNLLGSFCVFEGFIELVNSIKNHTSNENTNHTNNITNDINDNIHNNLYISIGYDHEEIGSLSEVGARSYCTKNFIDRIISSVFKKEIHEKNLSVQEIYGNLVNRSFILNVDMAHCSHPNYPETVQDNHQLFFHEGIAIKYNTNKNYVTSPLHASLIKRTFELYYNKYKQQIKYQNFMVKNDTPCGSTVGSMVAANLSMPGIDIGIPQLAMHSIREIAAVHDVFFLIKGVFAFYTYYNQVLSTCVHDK

[4] = target: T4, Procathepsin L (Homo sapiens, UniProt P07711); assay: cathepsin L inhibitors, dose response, counter-screen for M1/M17 aminopeptidase inhibitor project, biochemical, QFRET, 1536-well (AID 2214)
[5] = system: Vero; assay: cells; assay type: functional; details: Chlorocebus sabaeus
[6] = target: Nonstructural protein 1 (Influenza A virus, UniProt Q194T2); assay type: functional, Influenza A virus (A/California/07/2009(H1N1))
[7] = cells; assay type: functional
[8] = system: Vero; assay: cells; assay type: functional, cell-based; details: Chlorocebus sabaeus
[9] = system: INS1; assay: beta cell apoptosis inhibitors, cytokine rescue, dose response, luminescence, retest (AID 449756); assay type: functional, cell-based; details: Rattus norvegicus;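 note: cell death triggered by IL-1 beta plus TNF-alpha plus IFN-gamma mixture; protective hits raise ATP signal compared with cytokine alone wells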
[10] = system: BJ; assay: cytotoxicity toward BJ-TERT-LT-ST fibroblasts, dose response, cell-based, RAS-independent, luminescence (AID 1935); assay type: functional; details: Homo sapiens;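 note: BJ fibroblasts immortalized with TERT plus LT and ST oncogenes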
[11] = Vero E6 cell cytotoxicity, dose response, cytotoxicity control for non-replicating M. tuberculosis project, secondary assay (AID 492998); assay type: functional, VeroE6; details: Vero C1008
[12] = system: BJ; assay: cells; assay type: functional, cell-based; details: Homo sapiens
[13] = THP-1 cell cytotoxicity, dose response, cytotoxicity control for non-replicating M. tuberculosis project (AID 489025); assay type: functional
[14] = cytotoxicity toward DRD oncogenic fibroblasts, dose response, cell-based, non-viral oncogenic, luminescence (AID 1934); assay type: functional; details: Homo sapiens
[15] = HepG2 cell cytotoxicity, dose response, cytotoxicity control for non-replicating M. tuberculosis project (AID 489018); assay type: functional; details: Mycobacterium tuberculosis
[16] = system: BJ; assay: cytotoxicity toward BJ-TERT fibroblasts, dose response, cell-based, RAS-independent, luminescence (AID 1933); assay type: functional; details: Homo sapiens
[17] = Luminescence-based dose response cell-based high throughput screening assay for cytotoxic compounds using the IEC-6 intestinal epithelial cell line. [Related pubchem assays: 1858 (Summary AID.), 1825 (Counterscreen.), 1907 (Confirmation screen.)]; assay type: functional
[18] = system: BJ; assay: cytotoxicity toward Ras-transformed BJeLR fibroblasts, dose response, cell-based, alamar blue fluorescence, cherrypicked samples (AID 2631); assay type: functional; details: Homo sapiens;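 note: confirmatory dose-response assay in RAS-dependent BJ fibroblasts engineered with TERT, LT and ST, with cytotoxicity read by fluorescence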
[19] = cytotoxicity in KRAS-transformed pancreatic duct cells, primary screen, cell-based, fluorescence, HTS (AID 431); assay type: functional; details: Homo sapiens;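 note: cell line used: HPDE-C7K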
[20] = cytotoxicity in HPDE-C7 cells, cell-based, fluorescence, HTS (AID 430); assay type: functional; details: Homo sapiens
[21] = target: Muscarinic acetylcholine receptor M1 (Rattus norvegicus, UniProt P08482); assay: rat M1 positive allosteric modulator potency, dose response, cell-based, calcium mobilization, CHO-K1, ACh EC20 (AID 2425); assay type: functional
[22] = target: T1, Heat shock factor protein 1; assay: inhibition of MG132-induced HSE-luciferase signal, confirmation, cell-based, NIH3T3, luminescence, dose retest (AID 2382); assay type: functional;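 note: NIH3T3 fibroblasts with HSF1-driven luciferase reporter stressed by proteasome inhibitor MG132; luminescence from HSF1-driven luciferase expression after 8 hours of MG132 stress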
[23] = target: Peroxisome proliferator-activated receptor gamma/Nuclear receptor corepressor 2 (Homo sapiens, UniProt P37231+Q9Y618); assay: Counterscreen for NR2E3 inverse agonists: TR-FRET-based biochemical high throughput dose response assay to identify inverse agonists of the interaction between peroxisome proliferator-activated receptor gamma (PPARg) and nuclear receptor co-repressor 2 (NCOR2).; assay type: functional
[24] = target: Photoreceptor-specific nuclear receptor (Homo sapiens, UniProt Q9Y5X4); assay: NR2E3 inverse agonists, dose response, biochemical, TR-FRET (AID 463256); assay type: functional
[25] = system: Vero; assay: host cell cytotoxicity of antiviral hits, dose response, cytotoxicity control for West Nile virus antiviral project, secondary assay (AID 1650); assay type: functional; details: Chlorocebus sabaeus
[26] = target: T3, Aspartyl aminopeptidase
[27] = target: T5, Microphthalmia-associated transcription factor (Homo sapiens, UniProt O75030); assay: TRPM1 promoter luciferase signal decrease, dose response, MITF inhibitor project, cell-based, SK-MEL-5, cherry-picked, set 3 (AID 493073); assay type: functional
T5 sequence (O75030 whole entry): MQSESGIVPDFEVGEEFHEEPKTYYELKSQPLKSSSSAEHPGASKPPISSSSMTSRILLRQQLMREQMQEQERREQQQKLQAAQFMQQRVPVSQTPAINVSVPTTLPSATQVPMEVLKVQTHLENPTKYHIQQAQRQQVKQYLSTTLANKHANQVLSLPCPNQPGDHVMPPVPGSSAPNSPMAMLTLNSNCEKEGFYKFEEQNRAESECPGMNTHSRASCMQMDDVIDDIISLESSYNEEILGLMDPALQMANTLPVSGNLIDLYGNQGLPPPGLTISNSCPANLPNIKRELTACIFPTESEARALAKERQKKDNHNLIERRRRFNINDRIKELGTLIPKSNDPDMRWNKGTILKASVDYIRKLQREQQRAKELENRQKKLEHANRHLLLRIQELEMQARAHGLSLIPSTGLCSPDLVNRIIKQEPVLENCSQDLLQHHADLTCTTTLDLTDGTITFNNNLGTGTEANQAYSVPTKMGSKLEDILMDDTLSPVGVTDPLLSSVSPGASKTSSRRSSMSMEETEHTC

[28] = target: T4, Procathepsin L
[29] = C. albicans growth with fluconazole, confirmation, fluorescence, retest (AID 2467); assay type: functional, cell-based
[30] = system: Vero; assay: West Nile virus antiviral activity, cell-based, CPE readout (AID 1621); assay type: functional; details: Chlorocebus sabaeus
[31] = target: Paired box protein Pax-8 (Homo sapiens, UniProt Q06710); assay: inhibitors of PAX8-driven TPO luciferase reporter, dose response, RMG-I cells, cherry-pick (AID 687027); assay type: functional, cell-based;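 note: luciferase reporter driven by Pax8 target thyroperoxidase promoter measured by SteadyGlo luminescence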
[32] = NIH-3T3 fibroblast cytotoxicity, dose response, cytotoxicity control, cell-based, fluorescence, Alamar Blue, secondary assay (AID 2327); assay type: functional;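 note: NIH-3T3 mouse fibroblasts cultured with fluconazole at 8 µg/mL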
[33] = target: Cytochrome P450 2C19 (Homo sapiens, UniProt P33261); assay: qHTS Assay for Inhibitors and Substrates of Cytochrome P450 2C19. [Related pubchem assays: 410 ]; assay type: ADME; details: read-out: Potency
[34] = target: T6, Bcl-2-related protein A1 (Mus musculus, UniProt Q07440); assay: Bfl-1 inhibitors blocking BH3 peptide binding, confirmation, biochemical, TR-FRET, mouse Bfl-1 (AID 621);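 note: TR-FRET binding of GST-Bfl-1 to FITC-labelled Bid peptide via terbium antibody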
T6 sequence (Q07440 whole entry): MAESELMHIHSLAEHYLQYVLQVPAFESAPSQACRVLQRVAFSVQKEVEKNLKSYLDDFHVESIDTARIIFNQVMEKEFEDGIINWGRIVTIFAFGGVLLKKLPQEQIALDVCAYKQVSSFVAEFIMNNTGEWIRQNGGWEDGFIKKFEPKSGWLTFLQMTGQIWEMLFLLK

[35] = target: T6, Bcl-2-related protein A1; assay: Bfl-1 inhibitors, primary screen, biochemical, fluorescence polarization, FITC-Bid, mouse (AID 432)
[36] = target: NADPH oxidase 1 (Homo sapiens, UniProt Q9Y5S8); assay: Late-stage luminescence-based cell-based dose response assay to identify inhibitors of NADPH oxidase 1 (NOX1): Purchased analogs 2.; assay type: functional
NADPH oxidase 1, sequence (Q9Y5S8 whole entry): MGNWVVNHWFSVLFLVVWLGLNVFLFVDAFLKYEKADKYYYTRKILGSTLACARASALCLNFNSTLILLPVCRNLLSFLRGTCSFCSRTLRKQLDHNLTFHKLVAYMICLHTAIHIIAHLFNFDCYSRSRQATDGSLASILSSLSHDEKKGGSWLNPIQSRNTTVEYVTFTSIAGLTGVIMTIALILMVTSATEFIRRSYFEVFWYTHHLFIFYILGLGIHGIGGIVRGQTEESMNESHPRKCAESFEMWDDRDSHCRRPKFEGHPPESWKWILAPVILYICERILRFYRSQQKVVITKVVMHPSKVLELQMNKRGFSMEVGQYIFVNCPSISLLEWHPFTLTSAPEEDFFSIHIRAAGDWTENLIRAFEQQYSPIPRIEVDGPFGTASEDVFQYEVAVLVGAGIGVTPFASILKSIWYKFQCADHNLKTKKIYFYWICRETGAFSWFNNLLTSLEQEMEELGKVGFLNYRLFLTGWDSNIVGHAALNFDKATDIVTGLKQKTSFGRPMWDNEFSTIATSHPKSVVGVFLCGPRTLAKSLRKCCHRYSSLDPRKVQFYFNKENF

T4 sequence (P07711 whole entry): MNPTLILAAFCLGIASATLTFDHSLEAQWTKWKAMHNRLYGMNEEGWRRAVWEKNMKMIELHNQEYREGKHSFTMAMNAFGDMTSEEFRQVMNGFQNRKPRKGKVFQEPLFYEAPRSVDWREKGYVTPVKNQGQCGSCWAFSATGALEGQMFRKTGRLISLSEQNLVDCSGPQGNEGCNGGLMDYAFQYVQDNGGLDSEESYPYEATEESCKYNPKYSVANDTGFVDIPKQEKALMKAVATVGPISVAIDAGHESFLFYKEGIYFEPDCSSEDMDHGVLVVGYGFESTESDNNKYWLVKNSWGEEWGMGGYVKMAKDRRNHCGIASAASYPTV
Paired box protein Pax-8, sequence (Q06710 whole entry): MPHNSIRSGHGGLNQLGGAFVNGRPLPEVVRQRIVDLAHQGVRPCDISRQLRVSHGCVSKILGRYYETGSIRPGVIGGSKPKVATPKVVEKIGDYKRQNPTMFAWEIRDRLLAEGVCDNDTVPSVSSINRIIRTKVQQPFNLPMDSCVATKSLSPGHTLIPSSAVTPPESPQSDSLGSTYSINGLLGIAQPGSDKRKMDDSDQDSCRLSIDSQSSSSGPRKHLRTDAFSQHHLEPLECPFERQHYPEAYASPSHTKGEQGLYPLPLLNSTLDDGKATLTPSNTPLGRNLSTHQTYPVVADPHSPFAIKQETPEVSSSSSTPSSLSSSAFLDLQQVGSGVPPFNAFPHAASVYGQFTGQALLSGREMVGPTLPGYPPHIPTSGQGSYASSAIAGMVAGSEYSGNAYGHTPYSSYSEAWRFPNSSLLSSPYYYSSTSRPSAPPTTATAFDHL
Cytochrome P450 2C19, sequence (P33261 whole entry): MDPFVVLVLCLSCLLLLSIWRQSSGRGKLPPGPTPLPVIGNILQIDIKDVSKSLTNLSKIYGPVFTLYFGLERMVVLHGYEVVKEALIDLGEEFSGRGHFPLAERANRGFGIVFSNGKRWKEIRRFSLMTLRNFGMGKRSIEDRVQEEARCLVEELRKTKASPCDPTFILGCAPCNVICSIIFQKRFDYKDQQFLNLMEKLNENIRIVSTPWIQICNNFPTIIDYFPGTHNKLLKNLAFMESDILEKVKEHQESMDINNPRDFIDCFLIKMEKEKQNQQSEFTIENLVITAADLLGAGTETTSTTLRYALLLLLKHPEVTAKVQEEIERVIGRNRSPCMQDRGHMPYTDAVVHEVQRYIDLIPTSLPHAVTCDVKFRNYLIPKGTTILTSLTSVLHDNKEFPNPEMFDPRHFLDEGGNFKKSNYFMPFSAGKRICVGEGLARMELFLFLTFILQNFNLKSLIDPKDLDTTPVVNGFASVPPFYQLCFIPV
Photoreceptor-specific nuclear receptor, sequence (Q9Y5X4 whole entry): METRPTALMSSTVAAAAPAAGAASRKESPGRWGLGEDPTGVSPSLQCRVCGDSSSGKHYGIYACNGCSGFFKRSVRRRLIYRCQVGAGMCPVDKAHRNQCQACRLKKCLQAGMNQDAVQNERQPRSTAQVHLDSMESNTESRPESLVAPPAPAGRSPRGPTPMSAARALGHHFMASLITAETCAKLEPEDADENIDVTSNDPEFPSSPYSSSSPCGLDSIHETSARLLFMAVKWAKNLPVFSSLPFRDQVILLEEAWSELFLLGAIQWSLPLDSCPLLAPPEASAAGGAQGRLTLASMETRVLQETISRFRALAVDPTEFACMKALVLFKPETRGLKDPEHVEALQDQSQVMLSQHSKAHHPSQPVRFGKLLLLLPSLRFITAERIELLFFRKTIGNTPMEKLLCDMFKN
Nonstructural protein 1, sequence (Q194T2 whole entry): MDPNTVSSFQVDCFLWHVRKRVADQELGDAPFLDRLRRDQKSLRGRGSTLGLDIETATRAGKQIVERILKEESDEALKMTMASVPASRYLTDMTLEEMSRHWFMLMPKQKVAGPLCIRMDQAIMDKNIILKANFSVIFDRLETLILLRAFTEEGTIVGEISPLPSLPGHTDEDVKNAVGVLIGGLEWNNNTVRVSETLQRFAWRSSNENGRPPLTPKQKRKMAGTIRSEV
Muscarinic acetylcholine receptor M1, sequence (P08482 whole entry): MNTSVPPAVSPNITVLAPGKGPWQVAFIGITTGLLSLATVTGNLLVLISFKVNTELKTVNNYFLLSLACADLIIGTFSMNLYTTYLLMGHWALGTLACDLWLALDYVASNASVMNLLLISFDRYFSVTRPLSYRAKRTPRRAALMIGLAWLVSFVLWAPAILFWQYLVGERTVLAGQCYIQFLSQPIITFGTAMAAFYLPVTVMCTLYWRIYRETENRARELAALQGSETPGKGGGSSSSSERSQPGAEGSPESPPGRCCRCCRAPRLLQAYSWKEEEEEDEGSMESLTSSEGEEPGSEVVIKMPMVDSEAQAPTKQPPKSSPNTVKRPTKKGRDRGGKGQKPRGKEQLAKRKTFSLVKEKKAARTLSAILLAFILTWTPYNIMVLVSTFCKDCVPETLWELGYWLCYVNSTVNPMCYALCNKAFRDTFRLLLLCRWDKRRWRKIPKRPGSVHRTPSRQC

Structure (SMILES): O=C(CSc1nc(O)cc(=O)n1-c1ccccc1)Nc1ccc2c3c(cccc13)CC2
- EC50 [1]: > 260 µM (inactive)
- IC50 [2]: 1.45 µM (active)
- IC50 [3]: > 73.5 µM (not active)
- IC50 [4]: > 59.6 µM (not active)

Structure (SMILES): COc1ccc(C(=O)N/N=C(\C)c2ccccn2)cc1OC
- CC50 [5]: 2.83 µM (active)
- IC50 [6]: 2.93 µM (active)
- IC50 [7]: 3.01 µM (active)
- IC50 [8]: > 25 µM (active)
- AC50 [9]: 584 nM (active)
- EC50 [10]: 4.38 µM (active)
- CC50 [11]: 2.88 µM (active)
- EC50 [12]: 2.07 µM (active)
- CC50 [13]: 822 nM (active)
- EC50 [14]: 5.69 µM (active)
- CC50 [15]: 9.24 µM (active)
- EC50 [16]: 9.02 µM (active)
- IC50 [17]: 937 nM (active)
- EC50 [18]: 1.23 µM (active)

Structure (SMILES): O=S(=O)(c1ccc(Cl)c(Cl)c1)N1CCc2nc3ccccc3n2CC1
- EC50 [19]: > 20 µM (not active)
- EC50 [20]: 490 nM (active)

Structure (SMILES): Cc1cc(NC(=O)CS(=O)(=O)c2cn(Cc3cccc(F)c3)c3ccccc23)no1
- EC50 [21]: 5.32 µM (active)

Structure (SMILES): O=C(CCCCCn1c(=S)[nH]c2cc3c(cc2c1=O)OCO3)N1CCN(C(=O)c2ccco2)CC1
- EC50 [22]: > 195 µM (not active)
- IC50 [23]: > 39.8 µM (not active)
- IC50 [24]: 3.68 µM (active)

Structure (SMILES): BrC(=C\c1ccccc1)/C=N/n1cnnc1
- CC50 [25]: 6.4 µM (active)
- IC50 [26]: 1.89 µM (active)
- AC50 [27]: 7.26 µM (active)
- IC50 [28]: > 59.6 µM (not active)
- EC50 [29]: 1.01 µM (active)
- IC50 [30]: 39.2 µM (active)
- AC50 [31]: 3.84 µM (active)
- EC50 [32]: > 150 µM (inconclusive)

Structure (SMILES): O=c1cc(-c2ccc(O)cc2O)oc2ccccc12
- AC50 [33]: 6.31 µM (inconclusive)

Structure (SMILES): Brc1ccc(-c2nnc3ccc(N4CCN(c5ccccc5)CC4)nn23)cc1
- IC50 [34]: > 100 µM (not active)
- IC50 [35]: 8.88 µM (active)

Structure (SMILES): C=C(NNc1c(F)c(F)nc(F)c1F)c1ccc(-n2cncn2)cc1
- IC50 [36]: > 17 µM (not active)
